Here are results for 1 compound from ChEMBL document CHEMBL4138181, “Synthesis, molecular docking, and QSAR study of sulfonamide-based indoles as aromatase inhibitors” (Eur J Med Chem, 2018).

Structures are written as SMILES.

The test system of series [1] is aromatase. The series is described as follows: Selectivity index, ratio of IC50 for GFP-expressing African green monkey Vero cells to IC50 for aromatase (unknown origin). The series is classed as toxicity. Conditions: read-out: Ratio IC50.
Series [2] has as its target T1, Aromatase (Homo sapiens, UniProt P11511).
T1 sequence (P11511 whole entry): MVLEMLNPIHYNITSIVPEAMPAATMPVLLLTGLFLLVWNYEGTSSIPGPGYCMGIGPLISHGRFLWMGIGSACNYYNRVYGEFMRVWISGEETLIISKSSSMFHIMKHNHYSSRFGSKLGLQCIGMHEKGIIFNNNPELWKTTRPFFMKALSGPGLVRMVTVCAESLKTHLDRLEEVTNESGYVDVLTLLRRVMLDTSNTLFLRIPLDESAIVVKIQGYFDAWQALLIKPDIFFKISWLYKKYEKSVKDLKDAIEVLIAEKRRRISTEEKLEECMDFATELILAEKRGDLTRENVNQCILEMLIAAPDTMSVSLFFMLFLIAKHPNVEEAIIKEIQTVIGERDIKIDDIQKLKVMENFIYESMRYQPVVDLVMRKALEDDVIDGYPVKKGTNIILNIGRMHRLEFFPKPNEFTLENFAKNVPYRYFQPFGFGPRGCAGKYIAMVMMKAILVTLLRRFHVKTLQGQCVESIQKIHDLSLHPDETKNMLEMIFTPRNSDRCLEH
The series is described as follows: Inhibition of aromatase (unknown origin) using O-benzyl fluorescein benzyl ester as substrate in presence of NADPH-generating system by fluorescence assay.

The test system of series [3] is Vero. The series is described as follows: Cytotoxicity against GFP-expressing African green monkey Vero cells after 4 days by fluorescence assay. The series is classed as cell-based. Conditions: Chlorocebus sabaeus, 96 h.

For `COc1ccc(S(=O)(=O)NCCc2c(C(c3cc(OC)c(O)c(OC)c3)c3[nH]c4ccccc4c3CCNS(=O)(=O)c3ccc(OC)cc3)[nH]c3ccccc23)cc1`, the selectivity ratio in series [1] was > 24.2. Moreover, the half-inhibitory concentration (IC50) in series [2] was 2500 nM; in series [3], > 50 µg/mL.
